In ChEMBL document CHEMBL4507269, “Data for DCP probe BAY-386” (2021):

What was measured:
[1] = target: Serine/threonine-protein kinase Nek11 (Homo sapiens) (UniProt Q8NG66); details: Compound concentration 1000.0 nM
[2] = target: Cannabinoid receptor 1 (Homo sapiens) (UniProt P21554); assay: CB1 (h) Eurofins-Cerep Cellular and Nuclear Receptor Functional Assays; details: Compound concentration 10.0 uM
[3] = target: Ribosomal protein S6 kinase alpha-2 (Homo sapiens) (UniProt Q15349); details: Compound concentration 1000.0 nM
[4] = target: Bone morphogenetic protein receptor type-2 (Homo sapiens) (UniProt Q13873); details: Compound concentration 1000.0 nM
[5] = target: Mitogen-activated protein kinase kinase kinase 5 (Homo sapiens) (UniProt Q99683); details: Compound concentration 1000.0 nM
[6] = target: Cyclin-dependent kinase 5 (Homo sapiens) (UniProt Q00535); details: Compound concentration 1000.0 nM
Sequence of Cyclin-dependent kinase 5 (Homo sapiens) (Q00535 whole entry, looked up): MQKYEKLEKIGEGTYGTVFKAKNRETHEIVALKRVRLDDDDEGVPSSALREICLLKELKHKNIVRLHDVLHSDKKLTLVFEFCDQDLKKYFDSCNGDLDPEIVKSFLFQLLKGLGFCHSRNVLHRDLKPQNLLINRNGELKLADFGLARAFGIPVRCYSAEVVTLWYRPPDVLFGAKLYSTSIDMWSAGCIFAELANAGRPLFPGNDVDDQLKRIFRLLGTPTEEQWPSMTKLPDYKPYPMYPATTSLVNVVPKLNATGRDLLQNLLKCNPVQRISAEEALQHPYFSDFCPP

[7] = target: Serine/threonine-protein kinase TNNI3K (Homo sapiens) (UniProt Q59H18); details: Compound concentration 1000.0 nM
Sequence of Serine/threonine-protein kinase TNNI3K (Homo sapiens) (Q59H18 whole entry): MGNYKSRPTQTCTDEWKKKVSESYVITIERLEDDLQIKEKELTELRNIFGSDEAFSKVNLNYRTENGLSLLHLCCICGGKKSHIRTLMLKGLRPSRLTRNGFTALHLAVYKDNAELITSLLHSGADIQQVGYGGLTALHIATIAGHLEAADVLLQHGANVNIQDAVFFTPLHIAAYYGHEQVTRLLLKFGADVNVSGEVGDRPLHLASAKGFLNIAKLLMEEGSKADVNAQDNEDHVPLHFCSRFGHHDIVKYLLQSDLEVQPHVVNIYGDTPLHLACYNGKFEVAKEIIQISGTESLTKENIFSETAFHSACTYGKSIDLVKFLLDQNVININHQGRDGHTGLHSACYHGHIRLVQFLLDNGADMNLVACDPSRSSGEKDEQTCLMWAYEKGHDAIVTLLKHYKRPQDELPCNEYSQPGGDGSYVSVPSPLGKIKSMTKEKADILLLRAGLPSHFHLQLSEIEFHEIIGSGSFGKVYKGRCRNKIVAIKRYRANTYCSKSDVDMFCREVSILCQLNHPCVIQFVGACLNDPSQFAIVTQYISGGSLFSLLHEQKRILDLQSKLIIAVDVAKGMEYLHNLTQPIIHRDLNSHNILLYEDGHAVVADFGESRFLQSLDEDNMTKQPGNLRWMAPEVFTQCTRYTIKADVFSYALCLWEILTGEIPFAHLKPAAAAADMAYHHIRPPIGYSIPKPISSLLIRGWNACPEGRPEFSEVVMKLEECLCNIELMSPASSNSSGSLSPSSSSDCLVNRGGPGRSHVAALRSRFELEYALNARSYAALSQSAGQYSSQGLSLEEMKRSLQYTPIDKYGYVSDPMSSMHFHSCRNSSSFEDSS

[8] = test system: Tyrosine-protein kinase ABL1 (Homo sapiens), P00519 [Y253F]; details: Compound concentration 1000.0 nM
[9] = test system: Receptor-type tyrosine-protein kinase FLT3 (Homo sapiens), P36888 [UNDEFINED MUTATION]; details: Compound concentration 1000.0 nM
[10] = target: Delta-type opioid receptor (Homo sapiens) (UniProt P41143); details: Compound concentration 10.0 uM
[11] = test system: Tyrosine-protein kinase ABL1 (Homo sapiens), P00519 [T315I]; details: Compound concentration 1000.0 nM
[12] = target: Mitogen-activated protein kinase 15 (Homo sapiens) (UniProt Q8TD08); details: Compound concentration 1000.0 nM
[13] = target: Bone morphogenetic protein receptor type-1B (Homo sapiens) (UniProt O00238); details: Compound concentration 1000.0 nM
[14] = target: Mitogen-activated protein kinase 13 (Homo sapiens) (UniProt O15264); details: Compound concentration 1000.0 nM
[15] = target: Serine/threonine-protein kinase PAK 5 (Homo sapiens) (UniProt Q9P286); details: Compound concentration 1000.0 nM
[16] = target: Tyrosine-protein kinase Yes (Homo sapiens) (UniProt P07947); details: Compound concentration 1000.0 nM
[17] = target: Calcium/calmodulin-dependent protein kinase type 1 (Homo sapiens) (UniProt Q14012); details: Compound concentration 1000.0 nM
[18] = target: Serine/threonine-protein kinase TAO1 (Homo sapiens) (UniProt Q7L7X3); details: Compound concentration 1000.0 nM
[19] = target: Death-associated protein kinase 3 (Homo sapiens) (UniProt O43293); details: Compound concentration 1000.0 nM
[20] = target: Serine/threonine-protein kinase PRP4 homolog (Homo sapiens) (UniProt Q13523); details: Compound concentration 1000.0 nM
Sequence of Serine/threonine-protein kinase PRP4 homolog (Homo sapiens) (Q13523 whole entry): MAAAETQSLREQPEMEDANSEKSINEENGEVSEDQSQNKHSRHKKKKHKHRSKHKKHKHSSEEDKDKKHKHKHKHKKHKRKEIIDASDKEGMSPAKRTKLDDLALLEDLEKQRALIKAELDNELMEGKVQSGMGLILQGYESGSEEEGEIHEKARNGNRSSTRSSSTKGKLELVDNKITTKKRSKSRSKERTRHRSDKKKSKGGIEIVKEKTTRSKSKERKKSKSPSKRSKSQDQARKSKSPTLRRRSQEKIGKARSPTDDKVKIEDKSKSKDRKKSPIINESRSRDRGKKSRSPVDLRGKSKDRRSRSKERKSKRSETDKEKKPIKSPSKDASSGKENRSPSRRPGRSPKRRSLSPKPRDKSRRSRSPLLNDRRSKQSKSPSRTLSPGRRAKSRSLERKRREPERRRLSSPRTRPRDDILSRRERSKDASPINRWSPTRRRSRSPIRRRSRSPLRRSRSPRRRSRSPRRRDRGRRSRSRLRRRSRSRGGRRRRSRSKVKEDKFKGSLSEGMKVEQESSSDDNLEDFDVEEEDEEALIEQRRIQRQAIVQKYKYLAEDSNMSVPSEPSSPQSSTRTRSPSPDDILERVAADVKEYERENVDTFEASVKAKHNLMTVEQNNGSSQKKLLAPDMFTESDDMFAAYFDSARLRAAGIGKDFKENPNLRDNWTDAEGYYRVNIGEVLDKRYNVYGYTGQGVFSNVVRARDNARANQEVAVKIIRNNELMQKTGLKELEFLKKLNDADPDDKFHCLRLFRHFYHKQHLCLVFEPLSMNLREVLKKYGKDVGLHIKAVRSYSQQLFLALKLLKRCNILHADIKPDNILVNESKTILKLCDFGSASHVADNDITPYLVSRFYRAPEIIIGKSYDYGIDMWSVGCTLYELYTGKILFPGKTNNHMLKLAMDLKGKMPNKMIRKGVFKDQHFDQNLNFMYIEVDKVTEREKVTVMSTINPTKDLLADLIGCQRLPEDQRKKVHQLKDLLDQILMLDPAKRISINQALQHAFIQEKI

[21] = target: Serine/threonine-protein kinase Nek7 (Homo sapiens) (UniProt Q8TDX7); details: Compound concentration 1000.0 nM
[22] = target: Serine/threonine-protein kinase TAO2 (Homo sapiens) (UniProt Q9UL54); details: Compound concentration 1000.0 nM
[23] = target: Mitogen-activated protein kinase kinase kinase 10 (Homo sapiens) (UniProt Q02779); details: Compound concentration 1000.0 nM
[24] = target: Serine/threonine-protein kinase BRSK1 (Homo sapiens) (UniProt Q8TDC3); details: Compound concentration 1000.0 nM
[25] = target: AP2-associated protein kinase 1 (Homo sapiens) (UniProt Q2M2I8); details: Compound concentration 1000.0 nM
Sequence of AP2-associated protein kinase 1 (Homo sapiens) (Q2M2I8 whole entry, looked up): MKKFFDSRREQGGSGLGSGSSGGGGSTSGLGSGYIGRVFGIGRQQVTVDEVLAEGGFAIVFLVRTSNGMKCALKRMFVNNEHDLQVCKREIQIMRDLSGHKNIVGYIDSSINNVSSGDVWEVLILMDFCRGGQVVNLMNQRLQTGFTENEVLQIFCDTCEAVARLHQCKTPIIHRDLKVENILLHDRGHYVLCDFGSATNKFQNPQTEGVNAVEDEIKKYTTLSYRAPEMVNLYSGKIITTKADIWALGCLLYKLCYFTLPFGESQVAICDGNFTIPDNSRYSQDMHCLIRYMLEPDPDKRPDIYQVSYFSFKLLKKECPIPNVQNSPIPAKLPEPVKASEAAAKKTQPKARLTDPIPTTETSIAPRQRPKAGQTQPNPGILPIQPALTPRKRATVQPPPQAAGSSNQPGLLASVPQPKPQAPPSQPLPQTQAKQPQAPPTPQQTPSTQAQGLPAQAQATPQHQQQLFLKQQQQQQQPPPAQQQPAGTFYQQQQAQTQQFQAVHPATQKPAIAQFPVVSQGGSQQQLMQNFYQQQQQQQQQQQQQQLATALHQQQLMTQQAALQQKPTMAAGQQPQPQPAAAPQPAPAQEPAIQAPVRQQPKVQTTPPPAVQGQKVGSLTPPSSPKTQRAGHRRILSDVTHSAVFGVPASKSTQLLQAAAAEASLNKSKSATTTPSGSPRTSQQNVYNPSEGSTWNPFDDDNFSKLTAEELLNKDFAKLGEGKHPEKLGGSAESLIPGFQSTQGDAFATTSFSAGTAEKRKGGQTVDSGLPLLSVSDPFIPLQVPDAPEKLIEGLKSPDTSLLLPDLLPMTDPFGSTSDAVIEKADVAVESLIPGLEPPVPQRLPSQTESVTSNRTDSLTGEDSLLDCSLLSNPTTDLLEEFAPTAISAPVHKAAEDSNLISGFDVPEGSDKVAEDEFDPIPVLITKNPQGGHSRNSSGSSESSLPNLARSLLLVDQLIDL

[26] = target: cGMP-dependent protein kinase 1 (Homo sapiens) (UniProt Q13976); details: Compound concentration 1000.0 nM
[27] = test system: Phosphatidylinositol 4,5-bisphosphate 3-kinase catalytic subunit alpha isoform (Homo sapiens), P42336 [E545A]; details: Compound concentration 1000.0 nM
[28] = target: Serine/threonine-protein kinase ULK1 (Homo sapiens) (UniProt O75385); details: Compound concentration 1000.0 nM
Sequence of Serine/threonine-protein kinase ULK1 (Homo sapiens) (O75385 whole entry): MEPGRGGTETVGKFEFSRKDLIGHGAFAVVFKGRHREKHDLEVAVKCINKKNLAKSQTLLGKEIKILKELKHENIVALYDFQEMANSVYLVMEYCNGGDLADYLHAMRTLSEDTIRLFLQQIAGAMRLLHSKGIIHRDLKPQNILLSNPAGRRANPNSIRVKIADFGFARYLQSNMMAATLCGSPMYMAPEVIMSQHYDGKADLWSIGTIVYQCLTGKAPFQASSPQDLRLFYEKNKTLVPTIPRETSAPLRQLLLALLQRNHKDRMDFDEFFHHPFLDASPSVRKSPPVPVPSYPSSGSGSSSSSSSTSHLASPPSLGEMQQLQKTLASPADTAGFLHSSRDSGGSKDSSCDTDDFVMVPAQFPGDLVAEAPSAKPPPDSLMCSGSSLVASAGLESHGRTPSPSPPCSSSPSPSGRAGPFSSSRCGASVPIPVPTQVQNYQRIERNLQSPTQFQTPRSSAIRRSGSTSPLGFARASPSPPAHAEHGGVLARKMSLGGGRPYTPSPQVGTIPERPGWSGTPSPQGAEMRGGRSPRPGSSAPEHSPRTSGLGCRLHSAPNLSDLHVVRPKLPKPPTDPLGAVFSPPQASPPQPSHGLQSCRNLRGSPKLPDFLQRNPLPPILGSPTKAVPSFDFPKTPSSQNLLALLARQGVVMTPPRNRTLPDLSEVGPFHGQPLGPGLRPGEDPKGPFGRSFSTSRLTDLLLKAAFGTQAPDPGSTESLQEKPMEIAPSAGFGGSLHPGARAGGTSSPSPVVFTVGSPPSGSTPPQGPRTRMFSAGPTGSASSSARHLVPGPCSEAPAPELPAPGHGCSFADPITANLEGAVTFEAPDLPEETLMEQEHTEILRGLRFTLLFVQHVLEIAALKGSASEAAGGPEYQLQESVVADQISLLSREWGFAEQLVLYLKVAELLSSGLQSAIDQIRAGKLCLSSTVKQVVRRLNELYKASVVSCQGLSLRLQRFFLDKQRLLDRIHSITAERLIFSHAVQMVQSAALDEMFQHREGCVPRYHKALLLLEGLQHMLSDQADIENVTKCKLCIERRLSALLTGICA

[29] = target: Serine/threonine-protein kinase 38-like (Homo sapiens) (UniProt Q9Y2H1); details: Compound concentration 1000.0 nM
[30] = test system: Mast/stem cell growth factor receptor Kit (Homo sapiens), P10721 [D816V]; details: Compound concentration 1000.0 nM
[31] = target: Misshapen-like kinase 1 (Homo sapiens) (UniProt Q8N4C8); details: Compound concentration 1000.0 nM
[32] = test system: Tyrosine-protein kinase ABL1 (Homo sapiens), P00519 [T315I]; details: Compound concentration 1000.0 nM; remark: listed apart in the source
[33] = target: Serine/threonine-protein kinase B-raf (Homo sapiens) (UniProt P15056); details: Compound concentration 1000.0 nM
[34] = target: Calcium/calmodulin-dependent protein kinase type II subunit beta (Homo sapiens) (UniProt Q13554); details: Compound concentration 1000.0 nM
[35] = target: Rhodopsin kinase GRK7 (Homo sapiens) (UniProt Q8WTQ7); details: Compound concentration 1000.0 nM
[36] = target: Histamine H3 receptor (Homo sapiens) (UniProt Q9Y5N1); details: Compound concentration 10.0 uM
[37] = target: Serine/threonine-protein kinase NLK (Homo sapiens) (UniProt Q9UBE8); details: Compound concentration 1000.0 nM
[38] = target: Muscle, skeletal receptor tyrosine-protein kinase (Homo sapiens) (UniProt O15146); details: Compound concentration 1000.0 nM
[39] = target: MAP kinase-interacting serine/threonine-protein kinase 1 (Homo sapiens) (UniProt Q9BUB5); details: Compound concentration 1000.0 nM
[40] = test system: Phosphatidylinositol 4,5-bisphosphate 3-kinase catalytic subunit alpha isoform (Homo sapiens), P42336 [E542K]; details: Compound concentration 1000.0 nM
[41] = test system: Epidermal growth factor receptor (Homo sapiens), P00533 [L858R,T790M]; details: Compound concentration 1000.0 nM
[42] = target: D(2) dopamine receptor (Homo sapiens) (UniProt P14416); assay: D2s (h) Eurofins-Cerep Cellular and Nuclear Receptor Functional Assays; details: Compound concentration 10.0 uM
Sequence of D(2) dopamine receptor (Homo sapiens) (P14416 whole entry): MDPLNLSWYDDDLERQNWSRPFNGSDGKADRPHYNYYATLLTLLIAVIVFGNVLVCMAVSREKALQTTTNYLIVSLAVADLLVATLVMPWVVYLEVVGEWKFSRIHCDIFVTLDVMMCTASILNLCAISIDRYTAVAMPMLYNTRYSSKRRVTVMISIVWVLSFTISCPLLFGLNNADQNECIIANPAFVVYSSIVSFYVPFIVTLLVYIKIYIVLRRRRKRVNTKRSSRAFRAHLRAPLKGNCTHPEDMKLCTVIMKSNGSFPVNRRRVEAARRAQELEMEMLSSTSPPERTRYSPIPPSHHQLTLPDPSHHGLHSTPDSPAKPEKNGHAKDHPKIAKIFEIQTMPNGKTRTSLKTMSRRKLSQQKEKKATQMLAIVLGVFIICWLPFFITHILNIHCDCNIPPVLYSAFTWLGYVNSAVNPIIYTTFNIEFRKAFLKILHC

[43] = test system: Tyrosine-protein kinase ABL1 (Homo sapiens), P00519 [E255K]; details: Compound concentration 1000.0 nM
[44] = target: Fibroblast growth factor receptor 2 (Homo sapiens) (UniProt P21802); details: Compound concentration 1000.0 nM

Sequence of Cannabinoid receptor 1 (Homo sapiens) (P21554 whole entry): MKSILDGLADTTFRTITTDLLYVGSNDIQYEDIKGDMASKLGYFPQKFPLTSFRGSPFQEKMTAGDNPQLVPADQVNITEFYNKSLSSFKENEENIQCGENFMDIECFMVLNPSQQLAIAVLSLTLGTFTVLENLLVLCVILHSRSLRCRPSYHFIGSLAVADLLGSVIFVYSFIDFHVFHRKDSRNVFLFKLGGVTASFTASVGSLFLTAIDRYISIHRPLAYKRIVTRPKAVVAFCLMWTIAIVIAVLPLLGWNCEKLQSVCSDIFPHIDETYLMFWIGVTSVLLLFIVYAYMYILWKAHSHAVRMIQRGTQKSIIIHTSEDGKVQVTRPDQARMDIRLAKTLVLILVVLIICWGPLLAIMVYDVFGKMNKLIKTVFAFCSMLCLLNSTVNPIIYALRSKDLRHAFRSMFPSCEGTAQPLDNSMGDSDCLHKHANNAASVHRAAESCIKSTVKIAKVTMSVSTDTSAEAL

O=C(N1CCS(=O)(=O)CC1)N1C[C@H](c2ccc(OC(F)(F)F)cc2)C[C@H](c2nc(C3CC3)no2)C1 [BAY-386]
residual activity [1]: 100%
% Inhibition of Control Agonist Response (Mean n=2) [2]: 80.7%
% of Control Agonist Response (Mean n=2) [2]: -267%
residual activity [3]: 100%
residual activity [4]: 100%
residual activity [5]: 100%
residual activity [6]: 83%
residual activity [7]: 100%
residual activity [8]: 100%
residual activity [9]: 93%
inhibition [10]: -2.63%
residual activity [11]: 92%
residual activity [12]: 100%
residual activity [13]: 82%
residual activity [14]: 100%
residual activity [15]: 100%
residual activity [16]: 96%
residual activity [17]: 100%
residual activity [18]: 100%
residual activity [19]: 100%
residual activity [20]: 97%
residual activity [21]: 100%
residual activity [22]: 100%
residual activity [23]: 99%
residual activity [24]: 100%
residual activity [25]: 99%
residual activity [26]: 100%
residual activity [27]: 100%
residual activity [28]: 100%
residual activity [29]: 100%
residual activity [30]: 100%
residual activity [31]: 99%
residual activity [32]: 100%
residual activity [33]: 100%
residual activity [34]: 100%
residual activity [35]: 100%
inhibition [36]: -6.71%
residual activity [37]: 100%
residual activity [38]: 100%
residual activity [39]: 100%
residual activity [40]: 88%
residual activity [41]: 59%
% Inhibition of Control Agonist Response (Mean n=2) [42]: 6.6%
% of Control Agonist Response (Mean n=2) [42]: 4%
residual activity [43]: 100%
residual activity [44]: 94%

Cc1noc([C@H]2C[C@@H](c3ccc(C(F)(F)F)cc3)CN(C(=O)N3CCS(=O)(=O)C3)C2)n1 [BAY-448]
residual activity [1]: 100%
% Inhibition of Control Agonist Response (Mean n=2) [2]: -0.6%
% of Control Agonist Response (Mean n=2) [2]: -17.6%
residual activity [3]: 100%
residual activity [4]: 100%
residual activity [5]: 100%
residual activity [6]: 100%
residual activity [7]: 100%
residual activity [8]: 100%
residual activity [9]: 100%
inhibition [10]: -0.62%
residual activity [11]: 100%
residual activity [12]: 100%
residual activity [13]: 100%
residual activity [14]: 100%
residual activity [15]: 100%
residual activity [16]: 100%
residual activity [17]: 100%
residual activity [18]: 100%
residual activity [19]: 100%
residual activity [20]: 72%
residual activity [21]: 100%
residual activity [22]: 76%
residual activity [23]: 96%
residual activity [24]: 100%
residual activity [25]: 100%
residual activity [26]: 100%
residual activity [27]: 64%
residual activity [28]: 85%
residual activity [29]: 100%
residual activity [30]: 100%
residual activity [31]: 100%
residual activity [32]: 69%
residual activity [33]: 97%
residual activity [34]: 100%
residual activity [35]: 100%
inhibition [36]: 5.78%
residual activity [37]: 70%
residual activity [38]: 100%
residual activity [39]: 99%
residual activity [40]: 71%
residual activity [41]: 96%
% Inhibition of Control Agonist Response (Mean n=2) [42]: 8.6%
% of Control Agonist Response (Mean n=2) [42]: 3.1%
residual activity [43]: 100%
residual activity [44]: 85%
